Measurements reported in ChEMBL document CHEMBL5634100, “Novel spiro[pyrrolidine-2,3'-quinoline]-2'-one derivatives containing piperazine fragment as potential chitin synthase inhibitors and antifungal agents: Design, synthesis and biological evaluation” (Eur J Med Chem, 2023).
≈ marks a conversion by molar mass, not a printed value. Numbered stars: 1 amine (or outer) side, 2 acyl side, 3 side chain; on linkers, the order of the positions; unused ones are H or OH. Bridge positions count the residues as written; N and C are the ends. Square brackets hold non-standard residues; d marks the D form. Peptide text beside a SMILES is read from it. * marks the point of attachment. hTyr(3S-OH,4S-OH,3'-OSO3H) = N[C@H](C(=O)O)[C@H](O)[C@@H](O)c1ccc(O)c(OS(=O)(=O)O)c1; Orn(4R-OH,5R-OH) = O=C([C@H](C[C@@H](O)[C@@H](O)N[*:3])N[*:1])[*:2]; Pro(3S-OH,4S-Me) = C[C@H]1CN[C@H](C(=O)O)[C@H]1O; X1 = CCCCCOc1ccc(-c2cc(-c3ccc(C(=O)*)cc3)no2)cc1; Gln(3R-OH) = NC(=O)C[C@@H](O)[C@H](N)C(=O)O; Hyp = O=C(O)[C@@H]1C[C@@H](O)CN1

Assays:
Aspergillus flavus [1] = test: Synergistic antimicrobial activity against Aspergillus flavus ATCC 16870 assessed as fractional inhibitory concentration index incubated for 24 hrs in presence of polyoxin B by checkerboard method; format: functional
Candida tropicalis = test: Inhibition of Candida tropicalis ATCC 750 chitin synthase using UDP-GlcNAc as substrate at 300 ug/ml by TMB based microplate analyzer relative to control; conditions: dose 300.0 µg/ml
Cryptococcus neoformans [2] = test: Antimicrobial activity against Fluconazole-resistant Cryptococcus neoformans ATCC 32719R incubated for 24 hrs by two fold serial dilution method; format: functional
Candida albicans [3] = test: Antimicrobial activity against Candida albicans ATCC 76615 assessed as inhibition of cell wall synthesis in presence of sorbitol; format: functional
Aspergillus flavus [4] = test: Antimicrobial activity against Fluconazole-resistant Aspergillus flavus ATCC 16870R incubated for 24 hrs by two fold serial dilution method; format: functional
Cryptococcus neoformans [5] = test: Antimicrobial activity against Cryptococcus neoformans ATCC 32719 incubated for 24 hrs by two fold serial dilution method; format: functional
Cryptococcus neoformans [6] = test: Antimicrobial activity against Cryptococcus neoformans ATCC 32719 assessed as inhibition of cell wall synthesis in presence of sorbitol; format: functional
Cryptococcus neoformans [7] = test: Antimicrobial activity against Cryptococcus neoformans ATCC 32719 incubated for 24 hrs in presence of polyoxin B by checkerboard method; format: functional
Cryptococcus neoformans [8] = test: Synergistic antimicrobial activity against Cryptococcus neoformans ATCC 32719 assessed as fractional inhibitory concentration index incubated for 24 hrs in presence of fluconazole by checkerboard method; format: functional
Candida albicans [9] = test: Additive antimicrobial activity against Candida albicans ATCC 76615 assessed as fractional inhibitory concentration index incubated for 24 hrs in presence of polyoxin B by checkerboard method; format: functional
Cryptococcus neoformans [10] = test: Synergistic antimicrobial activity against Cryptococcus neoformans ATCC 32719 assessed as fractional inhibitory concentration index incubated for 24 hrs in presence of polyoxin B by checkerboard method; format: functional
Aspergillus flavus [11] = test: Antimicrobial activity against Aspergillus flavus ATCC 16870 incubated for 24 hrs in presence of fluconazole by checkerboard method; format: functional
Candida albicans [12] = test: Antimicrobial activity against Candida albicans ATCC 76615 incubated for 24 hrs in presence of polyoxin B by checkerboard method; format: functional
Aspergillus fumigatus [13] = test: Synergistic antimicrobial activity against Aspergillus fumigatus GIMCC 3.19 assessed as fractional inhibitory concentration index incubated for 24 hrs in presence of fluconazole by checkerboard method; format: functional
Aspergillus flavus [14] = test: Antimicrobial activity against Aspergillus flavus ATCC 16870 incubated for 24 hrs in presence of polyoxin B by checkerboard method; format: functional
Aspergillus fumigatus [15] = test: Antimicrobial activity against Aspergillus fumigatus GIMCC 3.19 incubated for 24 hrs by two fold serial dilution method; format: functional
Aspergillus flavus [16] = test: Antimicrobial activity against Aspergillus flavus ATCC 16870 assessed as inhibition of cell wall synthesis in presence of sorbitol; format: functional
Aspergillus fumigatus [17] = test: Antimicrobial activity against Aspergillus fumigatus GIMCC 3.19 incubated for 24 hrs in presence of polyoxin B by checkerboard method; format: functional
Candida albicans [18] = test: Antimicrobial activity against Candida albicans ATCC 76615 incubated for 24 hrs in presence of fluconazole by checkerboard method; format: functional
Aspergillus fumigatus [19] = test: Antimicrobial activity against Aspergillus fumigatus GIMCC 3.19 incubated for 24 hrs in presence of fluconazole by checkerboard method; format: functional
Aspergillus fumigatus [20] = test: Antimicrobial activity against Fluconazole-resistant Aspergillus fumigatus GIMCC 3.19R incubated for 24 hrs by two fold serial dilution method; format: functional
Aspergillus flavus [21] = test: Synergistic antimicrobial activity against Aspergillus flavus ATCC 16870 assessed as fractional inhibitory concentration index incubated for 24 hrs in presence of fluconazole by checkerboard method; format: functional
Aspergillus fumigatus [22] = test: Synergistic antimicrobial activity against Aspergillus fumigatus GIMCC 3.19 assessed as fractional inhibitory concentration index incubated for 24 hrs in presence of polyoxin B by checkerboard method; format: functional
Cryptococcus neoformans [23] = test: Antimicrobial activity against Cryptococcus neoformans ATCC 32719 incubated for 24 hrs in presence of fluconazole by checkerboard method; format: functional
Candida albicans [24] = test: Additive antimicrobial activity against Candida albicans ATCC 76615 assessed as fractional inhibitory concentration index incubated for 24 hrs in presence of fluconazole by checkerboard method; format: functional
Candida albicans [25] = test: Antimicrobial activity against micafungin-resistant Candida albicans ATCC 76615R incubated for 24 hrs by two fold serial dilution method; format: functional
Aspergillus fumigatus [26] = test: Antimicrobial activity against Aspergillus fumigatus GIMCC 3.19 assessed as inhibition of cell wall synthesis in presence of sorbitol; format: functional
Candida albicans [27] = test: Antimicrobial activity against fluconazole-resistant Candida albicans ATCC 76615R incubated for 24 hrs by two fold serial dilution method; format: functional
Candida albicans [28] = test: Antimicrobial activity against Candida albicans ATCC 76615 incubated for 24 hrs by two fold serial dilution method; format: functional
[29] = Inhibition of Candida tropicalis ATCC 750 chitin synthase using UDP-GlcNAc as substrate by TMB based microplate analyzer
Aspergillus flavus [30] = test: Antimicrobial activity against Aspergillus flavus ATCC 16870 incubated for 24 hrs by two fold serial dilution method; format: functional
Candida albicans [31] = test: Synergistic antimicrobial activity against Candida albicans ATCC 76615 assessed as fractional inhibitory concentration index incubated for 24 hrs in presence of fluconazole by checkerboard method; format: functional
Candida albicans [32] = test: Synergistic antimicrobial activity against Candida albicans ATCC 76615 assessed as fractional inhibitory concentration index incubated for 24 hrs in presence of polyoxin B by checkerboard method; format: functional
Cryptococcus neoformans [33] = test: Additive antimicrobial activity against Cryptococcus neoformans ATCC 32719 assessed as fractional inhibitory concentration index incubated for 24 hrs in presence of polyoxin B by checkerboard method; format: functional
Cryptococcus neoformans [34] = test: Additive antimicrobial activity against Cryptococcus neoformans ATCC 32719 assessed as fractional inhibitory concentration index incubated for 24 hrs in presence of fluconazole by checkerboard method; format: functional

Row | SMILES | inhibition (Candida tropicalis) [%] | MIC (Cryptococcus neoformans [2]) [µg/mL] | MIC (Candida albicans [3]) [µg/mL] | MIC (Aspergillus flavus [4]) [µg/mL] | MIC (Cryptococcus neoformans [5]) [µg/mL] | MIC (Cryptococcus neoformans [6]) [µg/mL] | MIC (Aspergillus fumigatus [15]) [µg/mL] | MIC (Aspergillus flavus [16]) [µg/mL] | MIC (Aspergillus fumigatus [20]) [µg/mL] | MIC (Candida albicans [25]) [µg/mL] | MIC (Aspergillus fumigatus [26]) [µg/mL] | MIC (Candida albicans [27]) [µg/mL] | MIC (Candida albicans [28]) [µg/mL] | IC50 [29] [µM] | MIC (Aspergillus flavus [30]) [µg/mL] | further results
1 | O=C(c1ccc([N+](=O)[O-])cc1)N1CCN(CC(=O)N2CCCC23Cc2ccccc2NC3=O)CC1 (stereo unspecified) | 80.2 | 64 (≈ 134 µM) | 64 | 128 (≈ 268 µM) | 2 (≈ 4.19 µM) | 64 | 1 (≈ 2.09 µM) | 32 | 64 (≈ 134 µM) | 128 (≈ 268 µM) | 64 | 32 (≈ 67 µM) | 2 (≈ 4.19 µM) | 110 | 2 (≈ 4.19 µM) | fractional inhibitory concentration index (FICI) (Aspergillus flavus [1]): 0.375; MIC (Cryptococcus neoformans [7]): 4 µg/mL; fractional inhibitory concentration index (FICI) (Cryptococcus neoformans [8]): 0.75; fractional inhibitory concentration index (FICI) (Candida albicans [9]): 1.125; fractional inhibitory concentration index (FICI) (Cryptococcus neoformans [10]): 0.5; MIC (Aspergillus flavus [11]): 2 µg/mL; MIC (Candida albicans [12]): 1 µg/mL; fractional inhibitory concentration index (FICI) (Aspergillus fumigatus [13]): 1; MIC (Aspergillus flavus [14]): 1 µg/mL; MIC (Aspergillus fumigatus [17]): 4 µg/mL; MIC (Candida albicans [18]): 0.5 µg/mL; MIC (Aspergillus fumigatus [19]): 2 µg/mL; fractional inhibitory concentration index (FICI) (Aspergillus flavus [21]): 0.75; fractional inhibitory concentration index (FICI) (Aspergillus fumigatus [22]): 0.75; MIC (Cryptococcus neoformans [23]): 2 µg/mL; fractional inhibitory concentration index (FICI) (Candida albicans [24]): 1.125
2 | CCCCCOc1ccc(-c2cc(-c3ccc(C(=O)N[C@H]4C[C@@H](O)[C@@H](O)NC(=O)[C@@H]5[C@@H](O)[C@@H](C)CN5C(=O)[C@H]([C@H](O)CC(N)=O)NC(=O)[C@H]([C@H](O)[C@@H](O)c5ccc(O)c(OS(=O)(=O)O)c5)NC(=O)[C@@H]5C[C@@H](O)CN5C(=O)[C@H]([C@@H](C)O)NC4=O)cc3)no2)cc1 [MICAFUNGIN] (X1-[Orn(4R-OH,5R-OH)]T[Hyp][hTyr(3S-OH,4S-OH,3'-OSO3H)][Gln(3R-OH)][Pro(3S-OH,4S-Me)]; lactam 1-C) |  |  |  |  |  |  |  |  |  | > 256 |  |  |  |  |  | 
3 | Cc1cccc(C(=O)N2CCN(CC(=O)N3CCCC34Cc3ccccc3NC4=O)CC2)c1 (stereo unspecified) | 49.4 |  |  |  | 64 (≈ 143 µM) |  | 32 (≈ 71.7 µM) |  |  |  |  |  | 16 (≈ 35.8 µM) |  | 32 (≈ 71.7 µM) | 
4 | O=C(c1ccccc1I)N1CCN(CC(=O)N2CCCC23Cc2ccccc2NC3=O)CC1 (stereo unspecified) | 54.2 |  |  |  | 32 (≈ 57.3 µM) |  | 16 (≈ 28.7 µM) |  |  |  |  |  | 8 (≈ 14.3 µM) |  | 16 (≈ 28.7 µM) | 
5 | O=C(c1c(F)cccc1F)N1CCN(CC(=O)N2CCCC23Cc2ccccc2NC3=O)CC1 (stereo unspecified) | 83.4 | 128 (≈ 273 µM) | 128 | 64 (≈ 137 µM) | 8 (≈ 17.1 µM) | 256 | 0.5 (≈ 1.07 µM) | 256 | 64 (≈ 137 µM) | 64 (≈ 137 µM) | 64 | 64 (≈ 137 µM) | 1 (≈ 2.13 µM) | 110 | 2 (≈ 4.27 µM) | fractional inhibitory concentration index (FICI) (Candida albicans [31]): 0.75; fractional inhibitory concentration index (FICI) (Aspergillus flavus [1]): 0.375; MIC (Cryptococcus neoformans [7]): 2 µg/mL; fractional inhibitory concentration index (FICI) (Candida albicans [32]): 0.625; MIC (Aspergillus flavus [11]): 4 µg/mL; MIC (Candida albicans [12]): 1 µg/mL; fractional inhibitory concentration index (FICI) (Aspergillus fumigatus [13]): 0.625; MIC (Aspergillus flavus [14]): 1 µg/mL; MIC (Aspergillus fumigatus [17]): 2 µg/mL; MIC (Candida albicans [18]): 1 µg/mL; fractional inhibitory concentration index (FICI) (Cryptococcus neoformans [33]): 1.125; MIC (Aspergillus fumigatus [19]): 2 µg/mL; fractional inhibitory concentration index (FICI) (Aspergillus flavus [21]): 0.75; fractional inhibitory concentration index (FICI) (Aspergillus fumigatus [22]): 0.75; MIC (Cryptococcus neoformans [23]): 1 µg/mL; fractional inhibitory concentration index (FICI) (Cryptococcus neoformans [34]): 1.125
6 | NC(=O)OC[C@H](O)[C@@H](O)[C@H](N)C(=O)N[C@H](C(=O)O)[C@H]1O[C@@H](n2cc(CO)c(=O)[nH]c2=O)[C@H](O)[C@@H]1O [POLYOXIN B] | 86.1 |  | 64 |  | 16 (≈ 31.5 µM) | 128 | 8 (≈ 15.8 µM) | 64 |  |  | 64 |  | 8 (≈ 15.8 µM) | 90 | 8 (≈ 15.8 µM) | 
7 | OC(Cn1cncn1)(Cn1cncn1)c1ccc(F)cc1F [FLUCONAZOLE] |  | > 256 |  | > 256 | 8 (≈ 26.1 µM) |  | 4 (≈ 13.1 µM) |  | > 256 |  |  | > 256 | 4 (≈ 13.1 µM) |  | 8 (≈ 26.1 µM) | 
8 | CCc1ccc(C(=O)N2CCN(CC(=O)N3CCCC34Cc3ccccc3NC4=O)CC2)cc1 (stereo unspecified) | 52.8 |  |  |  | 32 (≈ 69.5 µM) |  | 64 (≈ 139 µM) |  |  |  |  |  | 32 (≈ 69.5 µM) |  | 128 (≈ 278 µM) | 
